Laboratory results published in a compilation of properties of binary mixtures (doi:10.1007/s10953-020-00968-2).

Assay: xn = mol fraction of the nth substance listed
Settings: 101 kPa

O + CS(=O)(=O)[O-].C[N+](C)(CCO)CCO
x2 = 0
Settings | viscosity [mPa·s]
298.15 K | 0.877
303.15 K | 0.789
313.15 K | 0.654

CS(=O)(=O)[O-].C[N+](C)(CCO)CCO + O
viscosity [mPa·s]
Settings | x1 = 0.0989 | x1 = 0.1991 | x1 = 0.2989 | x1 = 0.3971 | x1 = 0.4797 | x1 = 0.5983 | x1 = 0.6984 | x1 = 0.7942 | x1 = 0.8928 | x1 = 1
298.15 K | 4.55 | – | 36.9 | 77.5 | 148 | 288 | 460 | 796 | 1034 | 1495
303.15 K | 3.91 | 12.42 | – | 60.6 | 113 | 212 | – | 558 | 718 | 1021
308.15 K | 3.45 | 10.56 | 24.6 | 48.3 | 78.7 | 160 | 246 | 403 | 510 | 716
313.15 K | 3.06 | 9.06 | 20.5 | 39 | – | 123.5 | – | 296 | 374 | 513
318.15 K | 2.74 | 7.85 | – | 32.1 | – | 86.9 | 142.8 | 223 | 279 | –
323.15 K | 2.51 | – | 14.75 | 26.7 | – | 69.4 | – | 171 | 212 | –
